Results published in paper PMC9319179, “Heterologous Expression and Characterization of Plant Wax Ester Producing Enzymes” (Metabolites, 2022).

Legend:
Arabidopsis At5g55340 WS = biological target: T1, Arabidopsis At5g55340 WS (Arabidopsis thaliana, UniProt Q9FJ76); experiment: in vivo feeding of expressing yeast, wax esters by TLC and GC-MS; type: cell-based; details: S. cerevisiae H1246; 50 uM alcohol with fed fatty acid (13:0 preferred), 20 °C; acyl donor formed in vivo
T1 construct: gene AT5
T1 sequence (Q9FJ76 1-333): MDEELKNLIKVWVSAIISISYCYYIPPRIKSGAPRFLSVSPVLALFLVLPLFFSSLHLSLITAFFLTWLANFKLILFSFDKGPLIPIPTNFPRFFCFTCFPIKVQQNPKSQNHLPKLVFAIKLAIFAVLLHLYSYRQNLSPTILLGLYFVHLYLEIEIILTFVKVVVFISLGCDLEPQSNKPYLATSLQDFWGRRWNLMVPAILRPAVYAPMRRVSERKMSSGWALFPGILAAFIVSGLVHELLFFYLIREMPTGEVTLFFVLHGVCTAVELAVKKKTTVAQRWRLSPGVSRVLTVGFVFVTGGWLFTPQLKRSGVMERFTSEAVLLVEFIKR

[1] = biological target: T2, maize WS (NP_001147171.1) (Zea mays, UniProt B6SLT2); experiment: in vivo feeding of expressing yeast, ethyl/benzyl esters by GC-MS; type: cell-based; details: S. cerevisiae H1246; fed fatty acids (14:1 preferred acyl), 20 °C; acyl donor formed in vivo
T2 construct: full-length ORF, C-terminal His6 tag, yeast codon-optimized synthetic ORF, expressed in S. cerevisiae H1246
T2 sequence (B6SLT2 1-345): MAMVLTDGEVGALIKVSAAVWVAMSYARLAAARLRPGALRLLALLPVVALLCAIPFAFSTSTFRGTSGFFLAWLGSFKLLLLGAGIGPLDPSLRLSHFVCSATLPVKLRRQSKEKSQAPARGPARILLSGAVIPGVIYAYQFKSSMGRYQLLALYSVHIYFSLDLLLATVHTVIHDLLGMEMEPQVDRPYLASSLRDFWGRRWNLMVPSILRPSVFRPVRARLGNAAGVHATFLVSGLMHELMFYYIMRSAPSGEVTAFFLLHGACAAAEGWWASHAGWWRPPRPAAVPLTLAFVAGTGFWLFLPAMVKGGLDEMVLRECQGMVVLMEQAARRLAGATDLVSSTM

| SMILES | in vivo feeding of expressing yeast, wax esters by TLC and GC-MS (Arabidopsis At5g55340 WS) | in vivo feeding of expressing yeast, ethyl/benzyl esters by GC-MS [1] |
| --- | --- | --- |
| CCCCCCCCCCCCCO [C13:0, C13:0 fatty alcohol] | apparent optimum at 13-carbon chain length for both the fatty acid and fatty alcohol |  |
| OCc1ccccc1 [benzyl alcohol] |  | ability to assemble esters with ethanol, benzyl alcohol, and phenylethyl alcohol |
| CCO [ethanol] |  | ability to assemble esters with ethanol, benzyl alcohol, and phenylethyl alcohol |
